The term IC50 denotes the midpoint of a concentration-inhibition curve.

The values below come from PMC10495264 (Nature Cell Biology, 2023).

Read-outs that look alike come from different tables or passages of the source.

In assay [1] the target is T1, TORC1 (Saccharomyces cerevisiae, UniProt P35169).
T1 construct: made in house; host or cells: S. cerevisiae strain NIC005 ([RL170-2c] LEU2:GFP-TOR1)
Description: Yeast TORC1 kinase activity assays (radioactive IVK, Lst4^Loop substrate). To be noted: for In vitro TORC1 kinase assay - CoA compounds, relative activity, Mean: Fig. 8b; for IC50: Lst4^Loop phosphorylation, detection limit 6 mM, n = 3, read-out: IC50 (yeast TORC1 IVK). It is filed as biochemical. As to the method:
TORC1 was purified from yeast cells and radioactive IVK assays were performed essentially as previously described. Briefly, kinase reactions (total volume, 30 μl) were performed with 400 ng of purified His6–Lst4^Loop protein and 60 ng TORC1 in kinase buffer (50 mM HEPES NaOH pH 7.5 and 150 mM NaCl). […] All reactions were carried out at 30 °C for 10 min and stopped with the addition of 3×sample buffer (50 mM Tris–HCl pH 6.8, 5% SDS, 0.05% bromophenol blue, 630 mM DTT and 30% glycerol) and heating at 65 °C for 10 min. Proteins were separated by SDS–PAGE and stained in-gel with SYPRO Ruby (S4942, Sigma-Aldrich) as the loading control. Substrate phosphorylation was analysed by autoradiography using a Typhoon FLA 9500 phosphorimager (GE Healthcare) and the raw density of the signals was quantified using the gel analysis tool of ImageJ.

Assay [2] deals with T2, mTORC1 (Homo sapiens, UniProt P42345).
T2 construct: endogenous mTORC1 complexes were purified from HEK293FT cells; endogenous in cells; host or cells: HEK293FT (immunoprecipitation of endogenous mTOR); the 4E-BP1 substrate was made in E. coli BL21 RP
Description: Mammalian mTORC1 kinase activity assays (IVK, 4E-BP1 substrate). To be noted: for In vitro mTORC1 assay, p-4E-BP1(T37/46)/4E-BP1, Mean: Fig. 8f, relative to 0 mM. It counts as biochemical. How it is done:
Following the last wash step with CHAPS IP wash buffer, the beads were washed once with kinase wash buffer (25 mM HEPES pH 7.4 and 20 mM KCl) and excess liquid was removed using a Hamilton syringe—the final bead volume was approximately 10 μl. Kinase reactions were prepared by adding 10 μl of 3×kinase assay buffer (75 mM HEPES KOH pH 7.4, 60 mM KCl and 30 mM MgCl2) to the beads. […] The reactions were incubated at 30 °C for 30 min, and stopped by the addition of one volume of 2×SDS loading buffer and boiling (5 min, 95 °C). […] Signals were quantified using the gel analysis tool of ImageJ and are shown as the phospho-4E-BP1^T37/46/4E-BP1 ratio.

For assay [3], the system named is TORC1. The assay is described as follows: TORC1 activity in yeast cells, p-Sch9^T737/Sch9 immunoblot. The conditions noted are these: wt Ctrl = 1. It is filed as cell-based, Saccharomyces cerevisiae. For orientation: Immunoblotting shows a protein as a band on a membrane.
Setting [4] is: compound 0.073 mM, normalised to this concentration.

T1 sequence (P35169 whole entry): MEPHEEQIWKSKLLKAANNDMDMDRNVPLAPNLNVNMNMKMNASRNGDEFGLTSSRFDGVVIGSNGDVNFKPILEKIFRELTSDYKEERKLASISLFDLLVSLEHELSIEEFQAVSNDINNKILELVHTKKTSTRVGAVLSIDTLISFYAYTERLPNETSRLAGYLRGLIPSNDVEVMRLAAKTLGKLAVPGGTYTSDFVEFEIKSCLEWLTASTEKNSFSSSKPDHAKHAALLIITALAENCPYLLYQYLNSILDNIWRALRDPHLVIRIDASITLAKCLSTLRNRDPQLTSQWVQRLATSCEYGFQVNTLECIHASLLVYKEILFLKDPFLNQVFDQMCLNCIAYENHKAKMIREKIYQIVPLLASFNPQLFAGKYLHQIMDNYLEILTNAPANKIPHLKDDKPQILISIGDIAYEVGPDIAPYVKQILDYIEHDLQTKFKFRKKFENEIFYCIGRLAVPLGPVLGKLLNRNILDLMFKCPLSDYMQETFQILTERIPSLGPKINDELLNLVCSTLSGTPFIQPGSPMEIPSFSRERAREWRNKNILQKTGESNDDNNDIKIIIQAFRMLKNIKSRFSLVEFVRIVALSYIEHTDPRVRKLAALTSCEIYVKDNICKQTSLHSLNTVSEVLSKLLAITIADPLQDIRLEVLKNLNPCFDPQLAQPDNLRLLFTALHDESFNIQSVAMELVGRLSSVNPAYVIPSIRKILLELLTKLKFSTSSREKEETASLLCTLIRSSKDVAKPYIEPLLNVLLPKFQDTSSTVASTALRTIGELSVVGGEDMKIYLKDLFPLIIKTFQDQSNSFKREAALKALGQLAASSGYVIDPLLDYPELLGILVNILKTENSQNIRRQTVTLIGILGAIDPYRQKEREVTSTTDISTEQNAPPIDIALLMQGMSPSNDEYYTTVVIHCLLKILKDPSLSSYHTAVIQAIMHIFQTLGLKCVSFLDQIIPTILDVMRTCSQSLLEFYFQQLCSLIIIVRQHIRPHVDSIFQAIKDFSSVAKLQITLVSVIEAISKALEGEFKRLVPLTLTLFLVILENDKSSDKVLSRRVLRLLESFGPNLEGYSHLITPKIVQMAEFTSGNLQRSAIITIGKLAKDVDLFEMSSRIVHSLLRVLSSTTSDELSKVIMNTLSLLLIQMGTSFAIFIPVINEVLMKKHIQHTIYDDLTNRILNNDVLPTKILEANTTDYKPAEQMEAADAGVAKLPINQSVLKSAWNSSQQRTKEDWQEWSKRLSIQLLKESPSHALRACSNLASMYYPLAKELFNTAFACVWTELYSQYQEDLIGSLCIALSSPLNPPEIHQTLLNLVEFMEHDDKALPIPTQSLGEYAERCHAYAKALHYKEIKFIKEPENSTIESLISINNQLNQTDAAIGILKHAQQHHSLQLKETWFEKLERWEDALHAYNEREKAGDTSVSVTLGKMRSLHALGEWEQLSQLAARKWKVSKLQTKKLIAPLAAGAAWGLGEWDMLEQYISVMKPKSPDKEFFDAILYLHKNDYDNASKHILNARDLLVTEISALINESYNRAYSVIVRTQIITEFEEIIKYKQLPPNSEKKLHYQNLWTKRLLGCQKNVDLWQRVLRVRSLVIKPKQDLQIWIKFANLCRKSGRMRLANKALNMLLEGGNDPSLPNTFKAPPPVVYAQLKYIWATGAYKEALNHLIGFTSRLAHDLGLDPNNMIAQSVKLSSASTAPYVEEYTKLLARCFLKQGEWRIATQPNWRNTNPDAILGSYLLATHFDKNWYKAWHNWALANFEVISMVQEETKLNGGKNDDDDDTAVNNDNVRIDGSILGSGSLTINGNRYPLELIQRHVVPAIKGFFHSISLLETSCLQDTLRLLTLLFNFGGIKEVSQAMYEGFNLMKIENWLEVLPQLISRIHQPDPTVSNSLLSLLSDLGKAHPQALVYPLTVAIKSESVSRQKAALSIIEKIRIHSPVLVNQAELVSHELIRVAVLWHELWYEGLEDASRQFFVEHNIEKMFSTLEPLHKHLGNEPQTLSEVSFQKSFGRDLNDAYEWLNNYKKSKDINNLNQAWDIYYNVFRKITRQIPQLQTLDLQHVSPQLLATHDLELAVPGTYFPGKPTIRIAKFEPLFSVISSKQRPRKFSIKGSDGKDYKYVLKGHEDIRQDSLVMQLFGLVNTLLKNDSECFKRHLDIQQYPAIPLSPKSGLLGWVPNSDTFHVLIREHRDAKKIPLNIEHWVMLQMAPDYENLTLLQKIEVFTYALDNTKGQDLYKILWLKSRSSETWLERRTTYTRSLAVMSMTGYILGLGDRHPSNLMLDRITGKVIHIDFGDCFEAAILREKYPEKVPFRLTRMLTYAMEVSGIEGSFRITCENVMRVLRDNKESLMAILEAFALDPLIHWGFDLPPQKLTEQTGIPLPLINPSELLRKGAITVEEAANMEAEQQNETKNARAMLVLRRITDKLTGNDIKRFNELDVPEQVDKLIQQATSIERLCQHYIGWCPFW
T1 sequence (Q08921 whole entry partner): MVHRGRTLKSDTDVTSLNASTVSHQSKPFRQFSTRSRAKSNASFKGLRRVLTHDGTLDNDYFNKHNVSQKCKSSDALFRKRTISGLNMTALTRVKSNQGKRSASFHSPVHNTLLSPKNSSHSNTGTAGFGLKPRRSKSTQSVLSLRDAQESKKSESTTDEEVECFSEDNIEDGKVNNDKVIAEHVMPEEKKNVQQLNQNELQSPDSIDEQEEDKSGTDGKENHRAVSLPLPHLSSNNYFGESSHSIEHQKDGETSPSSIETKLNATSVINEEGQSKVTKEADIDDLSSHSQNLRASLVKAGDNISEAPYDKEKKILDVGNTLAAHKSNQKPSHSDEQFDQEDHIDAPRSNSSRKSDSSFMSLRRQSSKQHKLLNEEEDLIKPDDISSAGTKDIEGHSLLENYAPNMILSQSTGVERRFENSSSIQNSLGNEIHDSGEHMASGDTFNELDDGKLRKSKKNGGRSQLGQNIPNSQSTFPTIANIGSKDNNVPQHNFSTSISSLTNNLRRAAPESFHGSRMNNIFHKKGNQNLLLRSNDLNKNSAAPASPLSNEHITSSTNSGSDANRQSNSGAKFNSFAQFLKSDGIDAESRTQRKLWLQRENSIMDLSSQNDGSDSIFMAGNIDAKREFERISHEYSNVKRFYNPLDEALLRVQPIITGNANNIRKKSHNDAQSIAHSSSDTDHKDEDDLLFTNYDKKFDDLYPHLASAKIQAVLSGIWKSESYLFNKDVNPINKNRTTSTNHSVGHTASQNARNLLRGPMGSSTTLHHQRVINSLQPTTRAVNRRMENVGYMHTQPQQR
T1 sequence (P38873 whole entry partner): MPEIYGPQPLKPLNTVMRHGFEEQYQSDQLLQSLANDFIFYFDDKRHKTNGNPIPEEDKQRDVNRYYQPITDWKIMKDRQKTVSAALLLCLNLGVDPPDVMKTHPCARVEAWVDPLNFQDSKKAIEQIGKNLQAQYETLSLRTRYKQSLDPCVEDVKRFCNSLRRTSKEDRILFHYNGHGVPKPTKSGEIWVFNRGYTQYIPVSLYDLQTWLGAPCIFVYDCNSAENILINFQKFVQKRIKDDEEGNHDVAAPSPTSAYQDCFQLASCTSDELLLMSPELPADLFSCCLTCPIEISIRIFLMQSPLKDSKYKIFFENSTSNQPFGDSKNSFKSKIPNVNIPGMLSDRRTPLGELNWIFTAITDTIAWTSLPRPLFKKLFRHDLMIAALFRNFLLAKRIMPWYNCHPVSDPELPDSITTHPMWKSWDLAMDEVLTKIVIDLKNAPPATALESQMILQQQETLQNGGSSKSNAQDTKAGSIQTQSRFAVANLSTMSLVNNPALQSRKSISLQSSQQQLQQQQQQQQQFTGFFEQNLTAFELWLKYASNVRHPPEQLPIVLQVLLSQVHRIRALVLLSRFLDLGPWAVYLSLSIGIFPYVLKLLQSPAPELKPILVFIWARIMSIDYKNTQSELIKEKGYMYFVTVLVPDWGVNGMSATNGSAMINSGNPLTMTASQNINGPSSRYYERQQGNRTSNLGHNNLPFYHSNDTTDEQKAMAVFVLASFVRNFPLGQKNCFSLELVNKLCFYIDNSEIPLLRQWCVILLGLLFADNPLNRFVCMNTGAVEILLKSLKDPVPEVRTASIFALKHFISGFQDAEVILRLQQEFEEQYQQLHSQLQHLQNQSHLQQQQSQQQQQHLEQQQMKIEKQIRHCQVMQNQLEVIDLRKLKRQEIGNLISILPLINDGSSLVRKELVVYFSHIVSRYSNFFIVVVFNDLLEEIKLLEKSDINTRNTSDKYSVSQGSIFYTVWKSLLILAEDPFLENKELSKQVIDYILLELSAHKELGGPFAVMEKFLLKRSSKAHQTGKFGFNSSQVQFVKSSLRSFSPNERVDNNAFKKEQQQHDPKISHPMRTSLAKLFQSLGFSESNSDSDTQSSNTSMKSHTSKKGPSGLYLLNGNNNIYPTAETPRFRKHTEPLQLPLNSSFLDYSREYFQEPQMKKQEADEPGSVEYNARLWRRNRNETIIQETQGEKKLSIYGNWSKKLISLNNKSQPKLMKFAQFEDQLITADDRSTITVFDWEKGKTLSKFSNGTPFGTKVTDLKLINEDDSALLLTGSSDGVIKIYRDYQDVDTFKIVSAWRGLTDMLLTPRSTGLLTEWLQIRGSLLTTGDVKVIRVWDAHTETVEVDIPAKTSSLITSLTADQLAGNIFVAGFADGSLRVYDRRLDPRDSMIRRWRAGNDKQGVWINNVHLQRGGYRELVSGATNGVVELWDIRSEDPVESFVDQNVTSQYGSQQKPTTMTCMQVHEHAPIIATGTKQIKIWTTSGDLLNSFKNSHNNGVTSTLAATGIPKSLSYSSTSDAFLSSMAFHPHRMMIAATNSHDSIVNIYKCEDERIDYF
T1 sequence (P41318 whole entry partner): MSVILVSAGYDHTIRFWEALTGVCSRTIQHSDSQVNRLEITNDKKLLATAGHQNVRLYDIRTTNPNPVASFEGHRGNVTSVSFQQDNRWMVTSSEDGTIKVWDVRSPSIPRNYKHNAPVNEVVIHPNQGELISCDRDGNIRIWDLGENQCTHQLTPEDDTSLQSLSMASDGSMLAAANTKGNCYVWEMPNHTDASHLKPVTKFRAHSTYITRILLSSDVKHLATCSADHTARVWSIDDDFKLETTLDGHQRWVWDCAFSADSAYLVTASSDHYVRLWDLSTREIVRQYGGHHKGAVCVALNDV

In the case of `CC(C)(COP(=O)(O)OP(=O)(O)OC[C@H]1O[C@@H](n2cnc3c(N)ncnc32)[C@H](O)[C@@H]1OP(=O)(O)O)[C@@H](O)C(=O)NCCC(=O)NCCS` [CoA, coenzyme A], the “In vitro TORC1 kinase assay - CoA compounds, relative activity, Mean” value in assay [1] (setting [4]) worked out at 1; in assay [1] (compound 0.22 mM), 1.005; in assay [1] (compound 2 mM), 0.9479; in assay [1] (compound 6 mM), 0.6805. The IC50 in assay [1] was over 6000 µM; in assay [2], over 5000 µM. Besides, the “In vitro mTORC1 assay, p-4E-BP1(T37/46)/4E-BP1, Mean” value in assay [2] (compound 0.01 mM) was 0.8503; in assay [2] (compound 0.05 mM), 0.8507; in assay [2] (compound 0.1 mM), 1.093; in assay [2] (compound 0.5 mM), 0.8643; in assay [2] (compound 1 mM), 1.061; in assay [2] (compound 2.5 mM) it was 0.926. Moreover, the “In vitro mTORC1 assay, p-4E-BP1(T37/46)/4E-BP1, Mean” value in assay [2] (compound 5 mM) is listed as 0.889.
Take `NC(=O)CC[C@H](N)C(=O)O` [Gln, glutamine]: the “p-Sch9(T737)/Sch9, Mean” value is on record as 0.2777 in assay [3] (Acc1-GFP yeast, nitrogen-starved then +Gln 1 min, ED Fig. 2e); 0.2567 in assay [3] (Acc1-GFP yeast, nitrogen-starved then +Gln 2 min, ED Fig. 2e); 0.172 in assay [3] (Acc1-GFP yeast, nitrogen-starved then +Gln 5 min, ED Fig. 2e); 0.2184 in assay [3] (acc1E392K yeast, nitrogen-starved then +Gln 1 min, ED Fig. 1g); 0.4052 in assay [3] (acc1E392K yeast, nitrogen-starved then +Gln 2 min, ED Fig. 1g); 0.172 in assay [3] (acc1E392K yeast, nitrogen-starved then +Gln 5 min, ED Fig. 1g). The “p-Sch9(T737)/Sch9, Mean” value in assay [3] (acc1E392K yeast, nitrogen-starved then +Gln 15 min, ED Fig. 1g) is given as 0.07897; in assay [3] (acc1E392K,S1157A yeast, nitrogen-starved then +Gln 1 min, ED Fig. 1g) it was 0.2597; in assay [3] (acc1E392K,S1157A yeast, nitrogen-starved then +Gln 2 min, ED Fig. 1g) it was 0.4125; in assay [3] (acc1E392K,S1157A yeast, nitrogen-starved then +Gln 5 min, ED Fig. 1g), 0.1831; in assay [3] (acc1E392K,S1157A yeast, nitrogen-starved then +Gln 15 min, ED Fig. 1g), 0.0777; in assay [3] (acc1S1157A yeast, nitrogen-starved then +Gln 1 min, ED Fig. 1g) it was 0.08981. Further, the “p-Sch9(T737)/Sch9, Mean” value worked out at 0.1842 in assay [3] (acc1S1157A yeast, nitrogen-starved then +Gln 1 min, ED Fig. 2e); 0.5322 in assay [3] (acc1S1157A yeast, nitrogen-starved then +Gln 1 min, Fig. 2e); 0.2298 in assay [3] (acc1S1157A yeast, nitrogen-starved then +Gln 2 min, ED Fig. 1g); 0.2323 in assay [3] (acc1S1157A yeast, nitrogen-starved then +Gln 2 min, ED Fig. 2e); 0.5731 in assay [3] (acc1S1157A yeast, nitrogen-starved then +Gln 2 min, Fig. 2e); 0.1433 in assay [3] (acc1S1157A yeast, nitrogen-starved then +Gln 5 min, ED Fig. 1g). Besides, the “p-Sch9(T737)/Sch9, Mean” value in assay [3] (acc1S1157A yeast, nitrogen-starved then +Gln 5 min, ED Fig. 2e) amounted to 0.1614; in assay [3] (acc1S1157A yeast, nitrogen-starved then +Gln 5 min, Fig. 2e), 0.2159; in assay [3] (acc1S1157A yeast, nitrogen-starved then +Gln 15 min, ED Fig. 1g), 0.0801; in assay [3] (acc1S1157A yeast, nitrogen-starved then +Gln 15 min, Fig. 2e), 0.1147; in assay [3] (acc1S1157A-GFP yeast, nitrogen-starved then +Gln 1 min, ED Fig. 2e) it was 0.2949; in assay [3] (acc1S1157A-GFP yeast, nitrogen-starved then +Gln 2 min, ED Fig. 2e) it was 0.2508. Besides, the “p-Sch9(T737)/Sch9, Mean” value turned out to be 0.1919 in assay [3] (acc1S1157A-GFP yeast, nitrogen-starved then +Gln 5 min, ED Fig. 2e); 0.3518 in assay [3] (wt yeast, nitrogen-starved then +Gln 1 min, n = 3, ED Fig. 2e); 0.1938 in assay [3] (wt yeast, nitrogen-starved then +Gln 1 min, n = 4, ED Fig. 1g); 0.8468 in assay [3] (wt yeast, nitrogen-starved then +Gln 2 min, Fig. 2e); 0.2928 in assay [3] (wt yeast, nitrogen-starved then +Gln 2 min, n = 3, ED Fig. 2e); 0.4107 in assay [3] (wt yeast, nitrogen-starved then +Gln 2 min, n = 4, ED Fig. 1g). Moreover, the “p-Sch9(T737)/Sch9, Mean” value in assay [3] (wt yeast, nitrogen-starved then +Gln 5 min, Fig. 2e) was 0.2605; in assay [3] (wt yeast, nitrogen-starved then +Gln 5 min, n = 3, ED Fig. 2e) it was 0.215; in assay [3] (wt yeast, nitrogen-starved then +Gln 5 min, n = 4, ED Fig. 1g) it was 0.1743; in assay [3] (wt yeast, nitrogen-starved then +Gln 15 min, Fig. 2e), 0.1412; in assay [3] (wt yeast, nitrogen-starved then +Gln 15 min, n = 4, ED Fig. 1g), 0.07833.
In the case of `CC(=O)SCCNC(=O)CCNC(=O)[C@H](O)C(C)(C)COP(=O)(O)OP(=O)(O)OC[C@H]1O[C@@H](n2cnc3c(N)ncnc32)[C@H](O)[C@@H]1OP(=O)(O)O` [acetyl-CoA], the “In vitro TORC1 kinase assay - CoA compounds, relative activity, Mean” value is 1 in assay [1] (setting [4]), 0.9698 in assay [1] (compound 0.22 mM), 0.7319 in assay [1] (compound 2 mM) and 0.5296 in assay [1] (compound 6 mM). Moreover, the IC50 in assay [1] was 2880 µM; in assay [2] (mTORC1 immunoprecipitated from HEK293FT, recombinant 4E-BP1, 500 μM ATP), 1030 µM. The “In vitro mTORC1 assay, p-4E-BP1(T37/46)/4E-BP1, Mean” value in assay [2] (compound 0.01 mM) amounted to 0.9483; in assay [2] (compound 0.05 mM), 0.8033; in assay [2] (compound 0.1 mM), 0.8597; in assay [2] (compound 0.5 mM), 0.644; in assay [2] (compound 1 mM), 0.6848; in assay [2] (compound 2.5 mM) it was 0.4704. Moreover, the “In vitro mTORC1 assay, p-4E-BP1(T37/46)/4E-BP1, Mean” value in assay [2] (compound 5 mM) came to 0.3906.
